Counter-ions that a name gives are not always drawn.
Experiments:
Type in all cases: in vivo
lymphocyte = assay: Lymphocyte transformation rate (SI value, PHA) in mice; conditions: 30 days
Source text: Male C57BL/6N mice were used in Example 2, 28 mice in total. The 28 mice were used for pretest for 7 days before the treatment began. Two groups of 14 mice were then created. […] Each group contained six replicates and each replicate contained 8 mice. The treatment period was for 30 days. Lymphocyte transformation rate in plasma, white blood cell (WBC) count, natural killer cell activity, Plasma IL-2 (Kit provided by Jinginei Biotech) and IL-6 (Kit provided by Bender MedSystems) measurements, and antibody forming, cell count were performed according to methods known to the skilled artisan (see “Medical Immunology Experiment,” Publisher: People Hygiene, Published in 1999 in China, Editor: Xi Chuan Ping). Five days before the end of the treatment, 12 mice from each group (each replicate for 2 mice) were immunized with 0.5 ml of 2% sheep RBC (equivalent to −2×10^8 cells per ml) for testing spleen B-cells. The relative weights of spleen and thymus to body weight (mg/100 g BW) were also measured. All statistical analyses were performed on ANOVA. The WBC count, lymphocyte transformation rate (specifically in the spleen), antibody forming cell, and natural killer cell killing rate (based on the killing rate of K562 cells by natural killer cell) were measured and analyzed, as illustrated in Tables 4and5. […]

IL-2 [1] = assay: Plasma IL-2 measurement in mice; conditions: 30 days
Source text: (§1) Male C57BL/6N mice were used in Example 2, 28 mice in total. The 28 mice were used for pretest for 7 days before the treatment began. Two groups of 14 mice were then created. […] Each group contained six replicates and each replicate contained 8 mice. The treatment period was for 30 days. Lymphocyte transformation rate in plasma, white blood cell (WBC) count, natural killer cell activity, Plasma IL-2 (Kit provided by Jinginei Biotech) and IL-6 (Kit provided by Bender MedSystems) measurements, and antibody forming, cell count were performed according to methods known to the skilled artisan (see “Medical Immunology Experiment,” Publisher: People Hygiene, Published in 1999 in China, Editor: Xi Chuan Ping). Five days before the end of the treatment, 12 mice from each group (each replicate for 2 mice) were immunized with 0.5 ml of 2% sheep RBC (equivalent to −2×10^8 cells per ml) for testing spleen B-cells. The relative weights of spleen and thymus to body weight (mg/100 g BW) were also measured. All statistical analyses were performed on ANOVA.

spleen B-cells = assay: Antibody forming cell count (spleen B-cells after sheep RBC immunization) in mice; conditions: 30 days, immunized with sheep RBC
Source text: (§2) Male C57BL/6N mice were used in Example 2, 28 mice in total. The 28 mice were used for pretest for 7 days before the treatment began. Two groups of 14 mice were then created. […] Each group contained six replicates and each replicate contained 8 mice. The treatment period was for 30 days.
(§3) Lymphocyte transformation rate in plasma, white blood cell (WBC) count, natural killer cell activity, Plasma IL-2 (Kit provided by Jinginei Biotech) and IL-6 (Kit provided by Bender MedSystems) measurements, and antibody forming, cell count were performed according to methods known to the skilled artisan (see “Medical Immunology Experiment,” Publisher: People Hygiene, Published in 1999 in China, Editor: Xi Chuan Ping). Five days before the end of the treatment, 12 mice from each group (each replicate for 2 mice) were immunized with 0.5 ml of 2% sheep RBC (equivalent to −2×10^8 cells per ml) for testing spleen B-cells. The relative weights of spleen and thymus to body weight (mg/100 g BW) were also measured. All statistical analyses were performed on ANOVA.
(§4) The WBC count, lymphocyte transformation rate (specifically in the spleen), antibody forming cell, and natural killer cell killing rate (based on the killing rate of K562 cells by natural killer cell) were measured and analyzed, as illustrated in Tables 4and5.

IL-2 [2] = assay: Serum IL-2 concentration (RIA) in goats pre- and post-operation
Description: (§5) An experiment was conducted on sixteen castrated adult goats, which were randomly divided into control group (n=8) and treatment group (TG, n=8); housed separately; and fed with the same nutrient level. The TG was treated orally with a cysteamine compound (the cysteamine compound is preferably cysteamine hydrochloride, where a dose of 45 mg/kg of body weight was administered, with 30% of the 45 mg/kg dosage comprising the cysteamine compound) provided by Shanghai Walcom Bio-Chem Ltd). Both groups were subjected to rumen operation and duodenum operation.
(§6) This experiment was conducted in four phases: (a) Roughage phase pre-operation: from day 18 to day 14 before the operation, both groups of goats were fed with roughage (dried peanut stalk) and water; (b) Concentrate phase pre-operation: day 13 to day 1 before the operation (in total 13 days), both groups were fed with roughage and concentrate (50 g/head), and the TG was also treated with a cysteamine compound (using dosages described above) at the same time; (c) Rumen operation phase: after completion of the concentrate phase pre-operation, the rumen operation was performed to affix a fistula on the rumen, which was followed by 18 days of recovery; (d) Duodenum operation phase: 18 days after the rumen operation, a second operation was performed to affix a fistula on the duodenum, following which the goats were allowed to have 17 days of recovery to complete this experiment. The feeding diet during the operation was same as that of concentrate phase per-operation.
(§7) While conducting the experiment, blood samples were periodically collected. In general, blood was collected via the neck vein before morning feeding. Part of the blood from each sample was stored in tubes containing heparin for anti-coagulation. The remaining part of each blood sample was centrifuged and then stored the serum at −20° C. Blood samples were collected at the following times: (a) Day 4 of the Roughage phase pre-operation; (b) Day 13 of the Concentrate phase (one day before the operation, B1); (c) 10 days after the 1st operation (rumen operation); and (d) 6 days and 17 days after the 2nd operation (duodenum operation).
(§8) Serum IL-2, cortisol concentration and lymphatic transformation testing were also performed during the experiment. […] To perform lymphatic cells transformation test, the blood samples from both groups were treated as follows: 3 tubes/sample, with blood sample 100 ul/tube for PHA− (PHA−: without PHA) and 3 tubes/sample for PHA+(PHA+: each tube added with 50 ul PHA diluted solution); cells in both PHA− and PHA+ were cultured for total 72 hours. After 48 hours of cell culture, 1 uL ^3H-TdR was added to each tube with and mixed with cells and incubated further for 24 hours. At the completion of the culturing process, the cells were lysed. The lysate from both PHA− and PHA+ tubes were transferred to scintillation bottles, dried at 80° C., then added with 5 ml scintillation solution. The solutions were stored overnight and tested for cpm. SI index implies the rate of lymphatic cells transformation induced by lectin, SI=cpm(PHA+)/cpm(PHA−).
(§9) IL-2 and cortisol testing kits were used. To prepare RPMI-1640 cell culture medium, RPMI-1640 powder was added with distillated water and filtered, and 20% Fetal Bovine Serum, Penicillin (100 U/ml) as well as Streptomycin (100 U/ml) was added. 2 ml culture medium solution was then added to each tube. In addition, diluted PHA, [Methy-^3H] Thymidine with radioactivity 1 mci/m, and Scintillation solution: PPO (2,5, Diphenyloxazole,) 5 g POPOP(1,4bis [5-phenyloxazolyl] benzene) 0.3 g Dimethyl benzene: 800 mL; 100% ethanol: 200 ml were added to each tube.
All data from the experiment (see Table 1) were expressed in mean±SE and analyzed by Excel software for t-test analysis, where P<0.05 implies significant difference, and 0.05<P<0.15 implies changes. The symbol “§” in Table 1 denotes TG treated with Cysteamine. […]

K562 cells = assay: Natural killer cell killing rate in mice; conditions: 30 days, killing of K562 cells
Source text: as §2, §3, §4

IL-6 = assay: Plasma IL-6 measurement in mice; conditions: 30 days
Source text: as §1

Male C57BL/6N mice [3] = assay: Relative weights of spleen and thymus to body weight in mice; conditions: 30 days
Source text: Male C57BL/6N mice were used in Example 2, 28 mice in total. The 28 mice were used for pretest for 7 days before the treatment began. Two groups of 14 mice were then created. […] Each group contained […]. The treatment period was for 30 days. Lymphocyte transformation rate in plasma, white blood cell (WBC) count, natural killer cell activity, Plasma IL-2 (Kit provided by Jinginei Biotech) and IL-6 (Kit provided by Bender MedSystems) measurements, and antibody forming, cell count were performed according to methods known to the skilled artisan (see “Medical Immunology Experiment,” Publisher: People Hygiene, Published in 1999 in China, Editor: Xi Chuan Ping). Five days before the end of the treatment, 12 mice from each group (each replicate for 2 mice) were immunized with 0.5 ml of 2% sheep RBC (equivalent to −2×10^8 cells per ml) for testing spleen B-cells. The relative weights of spleen and thymus to body weight (mg/100 g BW) were also measured. All statistical analyses were performed on ANOVA. After conducting all tests and analyses, the relative weight of certain immune organs, namely the thymus and spleen, were measured, as illustrated in Table 4.

lymphatic cells = assay: Lymphatic cells transformation test (PHA, 3H-TdR, SI) on blood of goats pre- and post-operation
Description: as §5, §6
While conducting the experiment, blood samples were periodically collected. In general, blood was collected via the neck vein before morning feeding. Part of the blood from each sample was stored in tubes containing heparin for anti-coagulation. […]
IL-2 and cortisol testing kits were used. […] Thymidine with radioactivity 1 mci/m, and Scintillation solution: PPO (2,5, Diphenyloxazole,) 5 g POPOP(1,4bis [5-phenyloxazolyl] benzene) 0.3 g Dimethyl benzene: 800 mL; 100% ethanol: 200 ml were added to each tube.

cortisol = assay: Serum cortisol concentration (RIA) in goats pre- and post-operation
Description: as §5, §6, §7, §8, §9
Cortisol concentrations of the two groups before the operation were substantially similar (20.51±4.1 for the control group versus 20.32±4.0 ug 1^−1 for the TG). Changes in cortisol concentration levels in the TG before and after the 1st operation were slight. […]

Male C57BL/6N mice [4] = assay: White blood cell (WBC) count in mice; conditions: 30 days
Source text: as §2, §3, §4

Structure (SMILES): NCCS [Cysteamine hydrochloride, cysteamine hydrochloride]
- Lymphocyte Transformation (SI Value, Stimulation Index) (lymphocyte; Treatment 1: 40 mg/kg BW oral): 1.15 ± 0.02 ^B
- Lymphocyte Transformation (SI Value, Stimulation Index) (lymphocyte; Treatment 2: 80 mg/kg BW oral): 1.24 ± 0.05 ^A
- Plasma IL-2 (IL-2 [1]; Treatment 1: 40 mg/kg BW oral): 5.88 ± 0.53 pg/mL
- Plasma IL-2 (IL-2 [1]; Treatment 2: 80 mg/kg BW oral): 5.76 ± 0.50 pg/mL
- Antibody Forming Cell (OD, Optical Density) (spleen B-cells; Treatment 1: 40 mg/kg BW oral): 1.48 ± 0.19 ^A OD
- Antibody Forming Cell (OD, Optical Density) (spleen B-cells; Treatment 2: 80 mg/kg BW oral): 0.91 ± 0.51 ^C OD
- difference in IL-2 concentration levels between the two groups (IL-2 [2]; after 17 days from the 2nd operation): had disappeared
- TG IL-2 concentration levels higher than the control group (IL-2 [2]; after the first operation (Day 10 after 1st, Day 6 after 2nd operation), P<0.05): 90-100%
- IL-2 concentration in TG, pre- versus post-operation (IL-2 [2]; treatment group): no significant difference between pre- and post-operation
- IL-2 serum concentration (IL-2 [2]; treatment group n=8, oral 45 mg/kg BW (30% cysteamine compound), pre-operation Concentrate phase, listed as Cysteamine, hydrochloride, 45 mg/kg): 0.97 ± 0.15 µg/L
- IL-2 serum concentration (IL-2 [2]; treatment group n=8, oral 45 mg/kg BW (30% cysteamine compound), pre-operation Concentrate phase, listed as cysteamine compound, hydrochloride, 45 mg/kg): 0.97 ± 0.15 µg/L
- IL-2 serum concentration (IL-2 [2]; treatment group, oral 45 mg/kg BW, after 1st (rumen) operation, Day 10, listed as Cysteamine, hydrochloride, 45 mg/kg): 1.32 ± 0.10 ^A ug/l
- IL-2 serum concentration (IL-2 [2]; treatment group, oral 45 mg/kg BW, after 1st (rumen) operation, Day 10, listed as cysteamine compound, hydrochloride, 45 mg/kg): 1.32 ± 0.10 µg/L
- IL-2 serum concentration (IL-2 [2]; treatment group, oral 45 mg/kg BW, after 2nd (duodenum) operation, Day 6, listed as Cysteamine, hydrochloride, 45 mg/kg): 0.95 ± 0.06 ^B ug/l
- IL-2 serum concentration (IL-2 [2]; treatment group, oral 45 mg/kg BW, after 2nd (duodenum) operation, Day 6, listed as cysteamine compound, hydrochloride, 45 mg/kg): 0.95 ± 0.06 µg/L
- IL-2 serum concentration (IL-2 [2]; treatment group, oral 45 mg/kg BW, after 2nd (duodenum) operation, Day 17): 1.02 ± 0.08 µg/L
- NK Killing Rate (K562 cells; Treatment 1: 40 mg/kg BW oral): 92.19 ± 2.20%
- NK Killing Rate (K562 cells; Treatment 2: 80 mg/kg BW oral): 93.60 ± 2.21%
- Plasma IL-6 (IL-6; Treatment 1: 40 mg/kg BW oral): 226.20 ± 37.93 pg/mL
- Plasma IL-6 (IL-6; Treatment 2: 80 mg/kg BW oral): 247.00 ± 51.76 pg/mL
- Spleen weight (Male C57BL/6N mice [3]; Treatment 1: 40 mg/kg BW oral): 298 ± 5.03 mg/100 g of body weight
- Thymus weight (Male C57BL/6N mice [3]; Treatment 1: 40 mg/kg BW oral): 549 ± 1.89 ^B mg/100 g of body weight
- Spleen weight (Male C57BL/6N mice [3]; Treatment 2: 80 mg/kg BW oral): 296 ± 7.50 mg/100 g of body weight
- Thymus weight (Male C57BL/6N mice [3]; Treatment 2: 80 mg/kg BW oral): 567 ± 7.18 ^A mg/100 g of body weight
- degree of decrease in lymphatic cells transformation rate caused by surgical operations (lymphatic cells; TG versus control group, P<0.05): significantly smaller than that of the control group
- rate of TG lymphatic cell transformation increased compared to the rate of the control group (lymphatic cells; six days after the 2nd/duodenum operation, P<0.05): 3.5 fold
- lymphatic cells transformation rate (SI) (lymphatic cells; treatment group, oral 45 mg/kg BW, Concentrate phase pre-operation, P=0.14 vs control): 132.4±20.3
- cortisol concentration before the operation (cortisol; TG, before the operation): 20.32±4.0 ug 1^−1
- changes in cortisol concentration levels in the TG before and after the 1st operation (cortisol; treatment group): slight
- cortisol serum concentration (cortisol; treatment group n=8, oral 45 mg/kg BW, pre-operation Concentrate phase): 20.3 ± 4.0 µg/L
- cortisol serum concentration (cortisol; treatment group, after 1st operation, Day 10): 20.9 ± 3.7 µg/L
- cortisol serum concentration (cortisol; treatment group, after 2nd operation, Day 6): 21.2 ± 5.2 µg/L
- cortisol serum concentration (cortisol; treatment group, after 2nd operation, Day 17): 20.7 ± 5.8 µg/L
- WBC Count (Male C57BL/6N mice [4]; Treatment 1: 40 mg/kg BW oral): 7.12 ± 0.65 10^9/L
- WBC Count (Male C57BL/6N mice [4]; Treatment 2: 80 mg/kg BW oral): 7.53 ± 0.55 10^9/L

Reference: patent US20080226648A1, “Methods for Treating Stress and Affecting Biological Immune Systems” (priority 2004, published 2008)
